Patent publication US20150073159A1, “Solid State Forms Of Cabazitaxel And Processes For Preparation Thereof” (PLUS CHEMICALS SA, priority 2011, published 2015)

Columns and labels:
[1] = Hygroscopicity and stability test (exposure to controlled relative humidity; water content by Karl-Fischer, form by PXRD); type: physicochemical; conditions: for % water content: Karl-Fischer coulometric titration; for Conversion to other forms of Cabazitaxel (in words) / Hygroscopicity (in words): normal atmospheric humidity, 60%, 80% and 100% RH
Experimental: (§1) Powder X-ray Diffraction was performed on an X-Ray powder diffractometer: PanAlytical X'pert Pro; CuKα radiation (λ=1.5418 Å); X'Celerator detector with active length 2.122 degrees 2-theta; laboratory temperature 22-25° C.; zero background sample holders. Prior to analysis, the samples were gently ground using a mortar and pestle to obtain a fine powder. The ground sample was adjusted into a cavity of the sample holder and the surface of the sample was smoothed using a cover glass.
A silicon powder internal standard was used to calibrate the peak positions and to eliminate an effect of the sample preparation. […] The internal standard powder can be mixed with a sample The PXRD diffractogram is then acquired and the current position of the aforementioned internal standard diffraction peak is determined. The difference between the current position of the diffraction and its nominal value of 28.44 degrees 2-theta is calculated. The current positions of all relevant sample peaks are then corrected using the above difference to obtain the true positions of the sample diffractions. The confidence interval for the peak positions was determined to be ±0.1 degrees 2-theta.
Scan range: 3-40 degrees 2-theta; Scan mode: continuous; Step size: 0.0167 degrees; Time per step: 42 s; Sample spin: 16 rpm; Sample holder: zero background silicon plate.
About 100 mg of a sample was placed to a cell with controlled relative humidity. The samples were exposed to 60%, 80% and 100% relative humidity, at a temperature of about room temperature, for a period of about two days. XRPD analysis and water content by Karl-Fischer coulometric titration were carried out before and after the exposure to the defined relative humidity.
Water was determined by KF Oven method (832 KF Thermoprep connected to 831 KF Coulometer). Water from the sample (50 mg of cabazitaxel) was released by nitrogen stream at 130° C. Extraction time was 10 minutes.

[2] = Polymorphic stability on storage (conversion measured by PXRD); type: physicochemical
Experimental: As used herein, and unless indicated otherwise, the term “polymorphic stability” in relation to the crystalline forms of Cabazitaxel means that there is less than 20%, 10%, 5%, 1%, 0.5% or 0.1% conversion of crystalline Cabazitaxel to any other solid state form of Cabazitaxel under the specified conditions, as measured by PXRD. In some embodiments, the conversion is 0.5%-20%, 0.5%-10% or 0.5%-5% or 0.5%-1% or 0.1%-1%, or 0.1%-0.5%.
as §1

[3] = 60% RH, about room temperature, about two days
[4] = 80% RH, about room temperature, about two days
[5] = 100% RH, about room temperature, about two days

Row | Form (crystalline structure determined by PXRD) [1, 3] | % water content [1, 3] [%] | Form (crystalline structure determined by PXRD) [1, 4] | % water content [1, 4] [%] | Form (crystalline structure determined by PXRD) [1, 5] | % water content [1, 5] [%] | Form (crystalline structure determined by PXRD) ([1]; Atmospheric RH) | % water content ([1]; Atmospheric RH) [%] | Hygroscopicity (in words) ([1]; about room temperature) | Period of polymorphic stability ([2]; about 25° C. and 60% relative humidity) | Period of polymorphic stability ([2]; about 40° C. and 75% RH) | Structure (SMILES) | Conversion to other forms of Cabazitaxel (in words) ([1]; about room temperature)
1 | Form I | 0.13 | Form I | 0.14 | Form I | 0.14 | Form I | 0.05 | low-hygroscopicity form |  |  | CO[C@H]1C(=O)[C@]2(C)[C@@H](OC)C[C@H]3OC[C@@]3(OC(C)=O)[C@H]2[C@H](OC(=O)c2ccccc2)[C@]2(O)C[C@H](OC(=O)[C@H](O)[C@@H](NC(=O)OC(C)(C)C)c3ccccc3)C(C)=C1C2(C)C [Form I, Cabazitaxel] | does not convert to any other forms of Cabazitaxel
2 | Form IV | 0.07 | Form IV | 0.09 | Form IV | 0.09 | Form IV | 0.01 | low-hygroscopicity form |  |  | CO[C@H]1C(=O)[C@]2(C)[C@@H](OC)C[C@H]3OC[C@@]3(OC(C)=O)[C@H]2[C@H](OC(=O)c2ccccc2)[C@]2(O)C[C@H](OC(=O)[C@H](O)[C@@H](NC(=O)OC(C)(C)C)c3ccccc3)C(C)=C1C2(C)C [Form IV, Cabazitaxel] | does not convert to any other forms of Cabazitaxel
3 | Form II | 0.07 | Form II | 0.09 | Form II | 0.11 | Form II | 0.02 | low-hygroscopicity form |  |  | CO[C@H]1C(=O)[C@]2(C)[C@@H](OC)C[C@H]3OC[C@@]3(OC(C)=O)[C@H]2[C@H](OC(=O)c2ccccc2)[C@]2(O)C[C@H](OC(=O)[C@H](O)[C@@H](NC(=O)OC(C)(C)C)c3ccccc3)C(C)=C1C2(C)C [Form II, Cabazitaxel] | does not convert to any other forms of Cabazitaxel
4 | Form III | 0.14 | Form III | 0.23 | Form III | 0.19 | Form III | 0.05 | low-hygroscopicity form | at least 6 months | at least 6 months | CO[C@H]1C(=O)[C@]2(C)[C@@H](OC)C[C@H]3OC[C@@]3(OC(C)=O)[C@H]2[C@H](OC(=O)c2ccccc2)[C@]2(O)C[C@H](OC(=O)[C@H](O)[C@@H](NC(=O)OC(C)(C)C)c3ccccc3)C(C)=C1C2(C)C [Form III, Cabazitaxel] | does not convert to any other solid state forms of Cabazitaxel
5 | Form V | 0.21 | Form V | 0.30 | Form V | 0.68 | Form V | 0.08 | low—hygroscopicity form |  |  | CO[C@H]1C(=O)[C@]2(C)[C@@H](OC)C[C@H]3OC[C@@]3(OC(C)=O)[C@H]2[C@H](OC(=O)c2ccccc2)[C@]2(O)C[C@H](OC(=O)[C@H](O)[C@@H](NC(=O)OC(C)(C)C)c3ccccc3)C(C)=C1C2(C)C [Form V, Cabazitaxel] | does not convert to any other forms of Cabazitaxel
